The source of these data is PubChem BioAssay AID743317 (Broad Institute, 2014).

Results filed as inconclusive are left out. Active and inactive are the calls of the source.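 Rule for the calls: active = fitted curve reaches 40% activation at or below the top valid dose, and every replicate test is called active; inconclusive = replicate tests disagree, some active and some inactive; inactive = all replicate tests inactive, including activity in the wrong direction.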 Where only a bound is given, the exact number is not on record here.

The target of one experiment is Endoplasmic reticulum aminopeptidase 1 (Homo sapiens) (UniProt Q9NZ08). The experiment can be described thus: ERAP1 aminopeptidase activity change, dose response, biochemical, fluorescence, cherry-pick (AID 743317). Conditions: ERAP1 enzyme, Leu-AMC fluorescence, 60 min.
Chain of Endoplasmic reticulum aminopeptidase 1 (Homo sapiens) (Q9NZ08 whole entry, looked up): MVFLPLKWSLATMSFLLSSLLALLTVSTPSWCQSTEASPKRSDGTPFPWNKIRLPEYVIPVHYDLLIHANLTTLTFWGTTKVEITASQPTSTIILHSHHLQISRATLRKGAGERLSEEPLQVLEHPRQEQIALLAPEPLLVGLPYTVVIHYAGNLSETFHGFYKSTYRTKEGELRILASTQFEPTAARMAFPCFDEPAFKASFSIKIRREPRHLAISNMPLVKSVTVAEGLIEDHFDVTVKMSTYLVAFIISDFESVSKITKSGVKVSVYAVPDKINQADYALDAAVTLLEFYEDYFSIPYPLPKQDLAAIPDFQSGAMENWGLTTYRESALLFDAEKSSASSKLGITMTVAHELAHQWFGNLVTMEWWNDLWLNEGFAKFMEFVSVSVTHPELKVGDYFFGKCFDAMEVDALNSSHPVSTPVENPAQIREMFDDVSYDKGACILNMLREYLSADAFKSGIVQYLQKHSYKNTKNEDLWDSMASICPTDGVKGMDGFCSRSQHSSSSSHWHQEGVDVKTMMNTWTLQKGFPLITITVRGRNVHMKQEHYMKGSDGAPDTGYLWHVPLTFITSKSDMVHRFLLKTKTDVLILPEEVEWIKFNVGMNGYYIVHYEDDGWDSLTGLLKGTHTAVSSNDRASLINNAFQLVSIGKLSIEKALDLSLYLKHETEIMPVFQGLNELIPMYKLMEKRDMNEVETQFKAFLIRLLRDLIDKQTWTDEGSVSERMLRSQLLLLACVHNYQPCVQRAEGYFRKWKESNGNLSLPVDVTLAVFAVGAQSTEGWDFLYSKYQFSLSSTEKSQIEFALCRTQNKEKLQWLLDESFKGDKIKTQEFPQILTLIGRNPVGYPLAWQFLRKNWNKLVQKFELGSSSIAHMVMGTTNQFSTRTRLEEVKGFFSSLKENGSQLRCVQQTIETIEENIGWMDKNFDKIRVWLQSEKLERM
In the case of `C[C@@H]1CCCCO[C@H](CN(C)Cc2ccc(C(=O)O)cc2)[C@@H](C)CN([C@H](C)CO)C(=O)c2cc(NC(=O)Nc3ccc(C(F)(F)F)cc3)ccc2O1`, the AC40 is less than 0.16 µM.

In the case of `C[C@H](CO)N1C[C@H](C)[C@H](CN(C)C)Oc2c(NC(=O)Nc3ccc(C(F)(F)F)cc3)cccc2C1=O`, the AC40 is 0.935 µM.

Regarding `C[C@H](CO)N1C[C@H](C)[C@H](CN(C)Cc2ccc(C(=O)O)cc2)Oc2c(NC(=O)Nc3ccccc3)cccc2C1=O`, the AC40 was 2.46 µM.

In the case of `CCn1cc(CN2CCCC(C(=O)Nc3ccc(-c4nc5ccccc5[nH]4)cc3)C2)c(C)n1` (configuration not stated), the AC40 was 3.5 µM.

As for `O=S(=O)(O)c1ccc(N2N=C(c3ccccc3)CC2c2ccccc2)cc1` (configuration not stated), the AC40 is 4.31 µM.

In the case of `COc1ccc(NC(=O)Nc2cccc3c2O[C@H](CN(C)Cc2ccc(C(=O)O)cc2)[C@H](C)CN([C@H](C)CO)C3=O)cc1`, the AC40 is 5.25 µM.

As to `C[C@H](CO)N1C[C@H](C)[C@@H](CN(C)C)Oc2c(NC(=O)Nc3ccc(C(F)(F)F)cc3)cccc2C1=O`, the AC40 was 0.762 µM.

Consider `Cc1c(O)ccc2c(CN3CCN(Cc4ccccc4)CC3)cc(=O)oc12`, for which the AC40 is 4.1 µM.

Regarding `O=C(O)c1cccc(NC(=O)c2ccccc2NC(=O)c2cccc([N+](=O)[O-])c2)c1`, the AC40 is 0.967 µM.

In the case of `COc1ccc(C(=O)O)cc1S(=O)(=O)Nc1cc(C(F)(F)F)ccc1N1CCCCC1`, the AC40 was 0.246 µM.

Turning to `COc1ccc(CN(C)C[C@H]2OCCCC[C@@H](C)Oc3ccc(NS(=O)(=O)c4cccs4)cc3C(=O)N([C@@H](C)CO)C[C@H]2C)cc1`, the AC40 was 1.11 µM.

On to `C[C@@H]1CCCCO[C@@H](CN(C)C)[C@@H](C)CN([C@H](C)CO)C(=O)c2cc(NS(=O)(=O)c3ccc(Cl)cc3)ccc2O1`, for which the AC40 was 0.381 µM.

Still in this experiment, the particulars now being: ERAP1 enzyme, Leu-AMC fluorescence, 60 min; at 5.6 µM (top of the series).
In the case of `CN1CCN(Cc2c(O)ccc3cc(-c4ccccn4)c(=O)oc23)CC1`, the activity increase (activation) was -103% (inactive).

Take `COC(=O)Cc1c(C)c2ccc(O)c(CNCc3ccc(OC)c(OC)c3)c2oc1=O`: the activity increase (activation) is -74.1% (inactive).

The experiment is the same for the next values; noted with them: ERAP1 enzyme, Leu-AMC fluorescence, 60 min; at 11 µM (top of the series).
In the case of `O=C(O)c1ccccc1NS(=O)(=O)c1cccc(-n2sc3ccccc3c2=O)c1`, the activity increase (activation) was -98.6% (inactive).

As for `Cc1cc(=O)oc2c(CN3CCN(CCO)CC3)c(O)ccc12`, the activity increase (activation) is -61.9% (inactive).

For `CCc1cc(=O)oc2c(CNCc3c(F)cccc3Cl)c(O)ccc12`, the activity increase (activation) was -60.7% (inactive).
